Data: PubChem BioAssay AID1963847 (Molecular Pharmacology Branch, DTP, NCI, 2024)
Values joined by “and” are separate entries in the source; they are usually repeats but may differ in a detail not shown here. Equal values may be shown once.

Tested on: 415267-285-R-J2-PDC complex spheroid viability
Assay: Anticancer human tumor 415267-285-R-J2-PDC patient-derived breast carcinoma cell line growth inhibition [POLQ]
Conditions: for viability, T/C: stronger effect = lower value
Description: Multicellular complex tumor spheroid response to Polymerase (POL) inhibitors (novobiocin, ART-558, RP6685) in combination with a variety of drugs and investigational agents in selected tumor cell lines
The POL inhibitors (novobiocin, ART-558, and RP6685) were evaluated both individually and in combination with standard of care and investigational anticancer small molecules within a complex spheroid model of solid tumors. . Complex spheroids include a stromal component modeled by human endothelial cells (HUVEC) and fibroblasts modeled by human mesenchymal stem cells (MSCs). The concentration ranges selected for each drug and investigational agent were based upon clinically achievable concentrations if the clinical Cmax of the agent was known.
Compounds. The drugs and investigational agents: novobiocin (NSC847541), ART-558 (NSC835418), RP-6685 (NSC848927), peposertib (NSC802822), ceralasertib (NSC780249), elimusertib (NSC800525), camonsertib (NSC841442), AZD-1390 (NSC803789), olaparib (NSC753686), talazoparib (NSC767125), rucaparib (NSC756644), sotorasib (NSC818433), MRTX-1133 (NSC836407), SN-38 (NSC673596), topotecan (NSC609699), epotoside (NSC141540), doxorubicin (NSC123127), gemcitabine (NSC613327), 5-fluorouracil (NSC19893), paclitaxel (NSC125973), vemurafenib (NSC761431), MSA-2 (NSC828583), SN-011 (NSC837082), adavosertib (NSC754352), prexasertib (NSC758257), carboplatin (NSC241240) and oxaliplatin (NSC266046), were obtained from the National Cancer Institute (NCI) Developmental Therapeutics Program Chemical Repository (21). The FDA-approved anticancer drug set is available from the Developmental Therapeutics Program at https://dtp.cancer.gov/organization/dscb/obtaining/. […] The stock solutions were prepared in dimethyl sulfoxide (DMSO, Sigma-Aldrich, St. Louis, MO, cat. D2650), except for the platinum compounds which were prepared in saline (Quality Biological, Gaithersburg, MD, cat. 114-055-101), at 800-fold the tested concentration and stored at -70 degrees C prior to their use. All drugs and investigational agents were tested over a range starting from a high concentration at or near the clinical Cmax and decreasing in half-log increments. If the clinical Cmax for an agent had not been determined, the highest concentration tested was 10 microM, except for SN-38, which was tested at a high concentration of 1 microM.
Cell Culture. All cells were maintained in an incubator at 37 degrees C and 5% CO2 with 95% humidity. The PDC lines were cultured according to standard operating procedures established by the NCI PDMR (https://pdmr.cancer.gov). Table 3 of the manuscript, lists the cell lines along with the number of the three cell types plated to form the mct-spheroids and media for tumor cell growth. After thawing, all PDC lines, except 997537-175-T-J1-PDC and 415267-285-R-J2-PDC, were cultured in Matrigel-coated flasks prepared with a working solution of 1X Ham's F-12 nutrient mix, without supplementation (Thermo Fisher Scientific, cat. 11765054), 100 U/mL penicillin-streptomycin (Thermo Fisher Scientific, cat. 15140122), and 2.5% Matrigel (Corning Inc., Corning, NY, cat. 354248) for the first three passages. The two PDC lines 997537-175-T-J1-PDC and 415267-285-R-J2-PDC were cultured on uncoated flasks. The 857933-349-R-J2-PDC line was cultured in 6C/Colon 1B media containing advanced DMEM/F-12 (Thermo Fisher Scientific, cat. 12634028), 10 mM HEPES (Thermo Fisher Scientific, cat. 15630080), 1X GlutaMAX supplement (Thermo Fisher Scientific, cat. 35050061), 0.1 mg/mL primocin (InvivoGen, San Diego, CA, cat. ant-pm-2), 10% defined fetal bovine serum, heat inactivated (HyClone Laboratories Inc., Logan, UT, cat. SH30070.03HI), 50% L-WRN conditioned media (ATCC, cat. CRL-3276), 1.25 mM N-Acetyl-L-cysteine (Sigma-Aldrich, cat. A9165), 10 mM nicotinamide (Sigma-Aldrich, cat. N0636), 1X B-27 supplement (Thermo Fisher Scientific, cat. 17504044), 1X N-2 supplement (Thermo Fisher Scientific, cat. […]

[1] = curve of first compound, second compound 0.0316 µM
[2] = curve of first compound, second compound 0.1 µM
[3] = curve of first compound, second compound 0.316 µM
[4] = curve of first compound, second compound 1 µM
[5] = curve of first compound, second compound 3.16 µM
[6] = curve of first compound, second compound 10 µM
[7] = second compound 0.0316 µM, first compound 0.0316 µM
[8] = second compound 0.0316 µM, first compound 0.1 µM
[9] = second compound 0.1 µM, first compound 0.0316 µM
[10] = second compound 0.1 µM, first compound 0.1 µM
[11] = second compound 0.316 µM, first compound 0.0316 µM
[12] = second compound 0.316 µM, first compound 0.1 µM
[13] = second compound 1 µM, first compound 0.0316 µM
[14] = second compound 1 µM, first compound 0.1 µM
[15] = second compound 3.16 µM, first compound 0.0316 µM
[16] = second compound 3.16 µM, first compound 0.1 µM
[17] = second compound 10 µM, first compound 0.0316 µM
[18] = second compound 10 µM, first compound 0.1 µM
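Also: spheroids exposed to compounds for one week before readout.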
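For viability, T/C in this document: luminescence used as stand-in measure of viable cells; 100% = DMSO vehicle control viability.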

## Nc1ccn(C2OC(CO)C(O)C2(F)F)c(=O)n1 (stereo not drawn) + Nc1ccc(C#CCN(C(=O)Cc2ncc(C(F)(F)F)cc2C(F)(F)F)c2ccc(F)cc2)nn1
[1]
  IC50: < 31.6 nM
[2]
  IC50: < 31.6 nM
[3]
  IC50: < 31.6 nM
[4]
  IC50: < 31.6 nM
[5]
  IC50: < 31.6 nM
[6]
  IC50: < 31.6 nM
[7]
  viability, T/C: 31.7%
[8]
  viability, T/C: 6.95%
Second compound 0.0316 µM, first compound 0.316 µM
  viability, T/C: 5.45%
Second compound 0.0316 µM, first compound 1 µM
  viability, T/C: 4.21%
Second compound 0.0316 µM, first compound 3.16 µM
  viability, T/C: 5.5%
Second compound 0.0316 µM, first compound 10 µM
  viability, T/C: 4.63%
[9]
  viability, T/C: 33.3%
[10]
  viability, T/C: 7.84%
Second compound 0.1 µM, first compound 0.316 µM
  viability, T/C: 5.21%
Second compound 0.1 µM, first compound 1 µM
  viability, T/C: 4.26%
Second compound 0.1 µM, first compound 3.16 µM
  viability, T/C: 4.99%
Second compound 0.1 µM, first compound 10 µM
  viability, T/C: 4.24%
[11]
  viability, T/C: 42.2%
[12]
  viability, T/C: 6.2%
Second compound 0.316 µM, first compound 0.316 µM
  viability, T/C: 4.82%
Second compound 0.316 µM, first compound 1 µM
  viability, T/C: 3.94%
Second compound 0.316 µM, first compound 3.16 µM
  viability, T/C: 6.45%
Second compound 0.316 µM, first compound 10 µM
  viability, T/C: 4.74%
[13]
  viability, T/C: 25.8%
[14]
  viability, T/C: 6.29%
Second compound 1 µM, first compound 0.316 µM
  viability, T/C: 5.24%
Second compound 1 µM, first compound 1 µM
  viability, T/C: 5.68%
Second compound 1 µM, first compound 3.16 µM
  viability, T/C: 5.32%
Second compound 1 µM, first compound 10 µM
  viability, T/C: 5.07%
[15]
  viability, T/C: 17.7%
[16]
  viability, T/C: 6.56%
Second compound 3.16 µM, first compound 0.316 µM
  viability, T/C: 5.45%
Second compound 3.16 µM, first compound 1 µM
  viability, T/C: 5.13%
Second compound 3.16 µM, first compound 3.16 µM
  viability, T/C: 5.35%
Second compound 3.16 µM, first compound 10 µM
  viability, T/C: 5.11%
[17]
  viability, T/C: 14.4%
[18]
  viability, T/C: 6.3%
Second compound 10 µM, first compound 0.316 µM
  viability, T/C: 5.2%
Second compound 10 µM, first compound 1 µM
  viability, T/C: 4.36%
Second compound 10 µM, first compound 3.16 µM
  viability, T/C: 4.56%
Second compound 10 µM, first compound 10 µM
  viability, T/C: 4.89%

## CC[C@@]1(O)C(=O)OCc2c1cc1n(c2=O)Cc2cc3c(CN(C)C)c(O)ccc3nc2-1 + Nc1ccc(C#CCN(C(=O)Cc2ncc(C(F)(F)F)cc2C(F)(F)F)c2ccc(F)cc2)nn1
[1]
  IC50: 24.2 nM
[2]
  IC50: 23.2 nM
[3]
  IC50: 25.8 nM
[4]
  IC50: 24.3 nM
[5]
  IC50: 22.5 nM
[6]
  IC50: 23.8 nM
Second compound 0.0316 µM, first compound 0.000316 µM
  viability, T/C: 102%
Second compound 0.0316 µM, first compound 0.001 µM
  viability, T/C: 101%
Second compound 0.0316 µM, first compound 0.00316 µM
  viability, T/C: 98.6%
Second compound 0.0316 µM, first compound 0.01 µM
  viability, T/C: 93.3%
[7]
  viability, T/C: 37%
[8]
  viability, T/C: 8.63%
Second compound 0.1 µM, first compound 0.000316 µM
  viability, T/C: 116%
Second compound 0.1 µM, first compound 0.001 µM
  viability, T/C: 102%
Second compound 0.1 µM, first compound 0.00316 µM
  viability, T/C: 96.8%
Second compound 0.1 µM, first compound 0.01 µM
  viability, T/C: 98.2%
[9]
  viability, T/C: 32.5%
[10]
  viability, T/C: 8.01%
Second compound 0.316 µM, first compound 0.000316 µM
  viability, T/C: 115%
Second compound 0.316 µM, first compound 0.001 µM
  viability, T/C: 98.2%
Second compound 0.316 µM, first compound 0.00316 µM
  viability, T/C: 94.2%
Second compound 0.316 µM, first compound 0.01 µM
  viability, T/C: 105%
[11]
  viability, T/C: 38.5%
[12]
  viability, T/C: 5.29%
Second compound 1 µM, first compound 0.000316 µM
  viability, T/C: 120%
Second compound 1 µM, first compound 0.001 µM
  viability, T/C: 96.2%
Second compound 1 µM, first compound 0.00316 µM
  viability, T/C: 98.8%
Second compound 1 µM, first compound 0.01 µM
  viability, T/C: 101%
[13]
  viability, T/C: 33.4%
[14]
  viability, T/C: 7.54%
Second compound 3.16 µM, first compound 0.000316 µM
  viability, T/C: 107%
Second compound 3.16 µM, first compound 0.001 µM
  viability, T/C: 103%
Second compound 3.16 µM, first compound 0.00316 µM
  viability, T/C: 97.6%
Second compound 3.16 µM, first compound 0.01 µM
  viability, T/C: 115%
[15]
  viability, T/C: 26.7%
[16]
  viability, T/C: 9.06%
Second compound 10 µM, first compound 0.000316 µM
  viability, T/C: 113%
Second compound 10 µM, first compound 0.001 µM
  viability, T/C: 106%
Second compound 10 µM, first compound 0.00316 µM
  viability, T/C: 98.9%
Second compound 10 µM, first compound 0.01 µM
  viability, T/C: 104%
[17]
  viability, T/C: 32.2%
[18]
  viability, T/C: 8.26%

## CNCc1ccc(-c2[nH]c3cc(F)cc4c3c2CCNC4=O)cc1
Compound 0.0316 µM
  viability, T/C: 107% and 95.9% and 101%
Compound 0.1 µM
  viability, T/C: 109% and 115% and 101%
Compound 0.316 µM
  viability, T/C: 96.2% and 94.8% and 102%
Compound 1 µM
  viability, T/C: 94.9% and 105% and 102%
Compound 3.16 µM
  viability, T/C: 108% and 96% and 106%
Compound 10 µM
  viability, T/C: 103% and 98.2% and 107%
Curve of compound
  IC50: > 10000 nM

## CCc1cc2c(N3CCc4c(cc(Cn5ccnc5)cc4-c4cn(C)nc4C(F)(F)F)C3=O)cc(C)nc2c(OC)n1
Compound 0.0316 µM
  viability, T/C: 84.8% and 99.7% and 90.9%
Compound 0.1 µM
  viability, T/C: 89.5% and 98.3% and 92.6%
Compound 0.316 µM
  viability, T/C: 74.6% and 79% and 86.6%
Compound 1 µM
  viability, T/C: 80.3% and 82.8% and 91.5%
Compound 3.16 µM
  viability, T/C: 71.9% and 84% and 83.9%
Compound 10 µM
  viability, T/C: 69% and 78.6% and 69.5%
Curve of compound
  IC50: > 10000 nM
